Source: patent US10597388B2, “Pyridazinone herbicides” (FMC CORPORATION, priority 2014, dated 2020)

Columns and labels:
Assay in all cases: Test C greenhouse herbicide test, pre- and postemergence
Type in all cases: in vivo
soybean (Glycine max) = test system: soybean (Glycine max)
Method in brief: (§1)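 Percent-control ratings (0 none, 100 complete) came from visual comparison with controls held alongside in the greenhouse for 13–15 d. Treatments covered soil application at sowing and foliar application to young plants 2–18 cm tall.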

[1] = test system: galium (catchweed bedstraw, Galium aparine)
Method in brief: as §1

[2] = test system: oilseed rape (Brassica napus)
Method in brief: as §1

[3] = test system: waterhemp (common waterhemp, Amaranthus rudis)
Method in brief: as §1

[4] = test system: foxtail, giant (giant foxtail, Setaria faberii); conditions: Postemergence
Method in brief: as §1

[5] = test system: barnyardgrass (Echinochloa crus-galli)
Method in brief: as §1

[6] = test system: pigweed (Amaranthus retroflexus)
Method in brief: as §1

[7] = test system: wheat (winter wheat, Triticum aestivum)
Method in brief: as §1

[8] = test system: johnsongrass (Sorghum halepense)
Method in brief: as §1

[9] = test system: ragweed (common ragweed, Ambrosia elatior)
Method in brief: as §1

[10] = test system: blackgrass (Alopecurus myosuroides)
Method in brief: as §1

[11] = test system: velvetleaf (Abutilon theophrasti)
Method in brief: as §1

[12] = test system: lambsquarters (Chenopodium album)
Method in brief: as §1

[13] = test system: nutsedge, yellow (yellow nutsedge, Cyperus esculentus)
Method in brief: as §1

[14] = test system: crabgrass, large (large crabgrass, Digitaria sanguinalis)
Method in brief: as §1

[15] = test system: morningglory (Ipomoea coccinea)
Method in brief: as §1

[16] = Postemergence, 31 g ai/ha, scale 0 to 100 (0 no effect, 100 complete control)
[17] = Postemergence, 125 g ai/ha, scale 0 to 100, 0 is no effect, 100 is complete control
[18] = Postemergence, 250 g ai/ha, scale 0 to 100, 0 no effect, 100 complete control, 13 to 15 d
[19] = Preemergence, 125 g ai/ha, scale 0 to 100, 0 is no effect, 100 is complete control
[20] = Preemergence, 250 g ai/ha, scale 0 to 100 (0 no effect, 100 complete control)
[21] = Preemergence, 31 g ai/ha, scale 0 to 100, 0 is no effect, 100 is complete control
[22] = Preemergence, 62 g ai/ha, scale 0 to 100, 0 is no effect, 100 is complete control
[23] = postemergence, 62 g ai/ha, scale 0 to 100, 0 no effect, 100 complete control

CCC(=O)Oc1c(Cl)nn(C)c(=O)c1-c1c(C)sc2ccc(Cl)cc12 [Compound 111]
90: Plant response rating, Pigweed [6, 17] | Plant response rating, Pigweed [6, 22] | Plant response rating, Ragweed [9, 19] | Plant response rating, Velvetleaf [11, 18] | Plant response rating, Lambsquarters [12, 16] | Plant response rating, Lambsquarters [12, 21] | Plant response rating, Lambsquarters [12, 19] | Nutsedge, Yellow plant response rating [13, 20]
20: Plant response rating, Barnyardgrass [5, 22] | Plant response rating, Wheat [7, 19] | Johnsongrass plant response rating [8, 20] | Plant response rating, Blackgrass [10, 17] | Blackgrass plant response rating [10, 20] | Plant response rating, Nutsedge, Yellow [13, 22] | Crabgrass, Large plant response rating [14, 23]
98: Plant response rating, Oilseed Rape [2, 22] | Plant response rating, Pigweed [6, 18] | Plant response rating, Pigweed [6, 21] | Plant response rating, Pigweed [6, 19] | Plant response rating, Ragweed [9, 16] | Plant response rating, Ragweed [9, 17] | Ragweed plant response rating [9, 20] | Plant response rating, Velvetleaf [11, 17] | Morningglory plant response rating [15, 20]
40: Plant response rating, Waterhemp [3, 16] | Plant response rating, Barnyardgrass [5, 18] | Wheat plant response rating [7, 20] | Plant response rating, Velvetleaf [11, 16]
15: Plant response rating, Foxtail, Giant ([4]; 31 g ai/ha, scale 0 to 100 (0 no effect, 100 complete control)) | Plant response rating, Wheat [7, 17] | Plant response rating, Johnsongrass [8, 17]
60: Plant response rating, Ragweed [9, 21]
35: Plant response rating, Blackgrass [10, 18] | Plant response rating, Nutsedge, Yellow [13, 16]
80: Plant response rating, Galium [1, 21] | Plant response rating, Galium [1, 22] | Plant response rating, Oilseed Rape [2, 16] | Crabgrass, Large plant response rating [14, 20]
55: Plant response rating, Waterhemp [3, 17] | Plant response rating, Barnyardgrass [5, 19]
30: Barnyardgrass plant response rating [5, 23]
65: Plant response rating, Waterhemp [3, 22] | Plant response rating, Velvetleaf [11, 21] | Plant response rating, Nutsedge, Yellow [13, 17]
45: Plant response rating, Barnyardgrass [5, 17]
0: Plant response rating, Soybean (soybean (Glycine max); [16]) | Plant response rating, Soybean (soybean (Glycine max); [19]) | Soybean plant response rating (soybean (Glycine max); [20]) | Plant response rating, Oilseed Rape [2, 21] | Plant response rating, Wheat [7, 21] | Plant response rating, Johnsongrass [8, 21] | Plant response rating, Johnsongrass [8, 22] | Plant response rating, Johnsongrass [8, 19] | Plant response rating, Blackgrass [10, 16] | Plant response rating, Blackgrass [10, 21] | Plant response rating, Nutsedge, Yellow [13, 21]
50: Plant response rating, Waterhemp [3, 21] | Plant response rating, Morningglory [15, 21]
95: Plant response rating, Galium [1, 16] | Plant response rating, Galium [1, 17] | Plant response rating, Galium [1, 18] | Plant response rating, Oilseed Rape [2, 17] | Plant response rating, Velvetleaf [11, 19] | Plant response rating, Lambsquarters [12, 22] | Lambsquarters plant response rating [12, 20] | Plant response rating, Morningglory [15, 19]
100: Plant response rating, Galium [1, 19] | Galium plant response rating [1, 20] | Plant response rating, Oilseed Rape [2, 18] | Plant response rating, Oilseed Rape [2, 19] | Oilseed Rape plant response rating [2, 20] | Pigweed plant response rating [6, 20] | Plant response rating, Ragweed [9, 18] | Velvetleaf plant response rating [11, 20] | Plant response rating, Lambsquarters [12, 17] | Plant response rating, Lambsquarters [12, 18] | Plant response rating, Morningglory [15, 16] | Plant response rating, Morningglory [15, 17] | Plant response rating, Morningglory [15, 18]
25: Plant response rating, Wheat [7, 18] | Plant response rating, Crabgrass, Large [14, 17] | Plant response rating, Crabgrass, Large [14, 18]
5: Plant response rating, Soybean (soybean (Glycine max); [17]) | Plant response rating, Wheat [7, 22] | Plant response rating, Blackgrass [10, 22] | Plant response rating, Blackgrass [10, 19] | Blackgrass plant response rating [10, 23] | Plant response rating, Crabgrass, Large [14, 21] | Plant response rating, Crabgrass, Large [14, 22]
70: Plant response rating, Waterhemp [3, 18] | Plant response rating, Foxtail, Giant ([4]; 125 g ai/ha, scale 0 to 100, 0 is no effect, 100 is complete control) | Plant response rating, Velvetleaf [11, 22] | Plant response rating, Morningglory [15, 22]
85: Waterhemp plant response rating [3, 20] | Plant response rating, Foxtail, Giant ([4]; 250 g ai/ha, scale 0 to 100, 0 no effect, 100 complete control, 13 to 15 d) | Barnyardgrass plant response rating [5, 20] | Plant response rating, Pigweed [6, 16] | Plant response rating, Crabgrass, Large [14, 19]
10: Plant response rating, Soybean (soybean (Glycine max); [18]) | Plant response rating, Barnyardgrass [5, 16] | Plant response rating, Barnyardgrass [5, 21] | Plant response rating, Wheat [7, 16] | Plant response rating, Johnsongrass [8, 16] | Plant response rating, Johnsongrass [8, 18] | Plant response rating, Crabgrass, Large [14, 16]
75: Plant response rating, Waterhemp [3, 19] | Plant response rating, Ragweed [9, 22] | Plant response rating, Nutsedge, Yellow [13, 18] | Plant response rating, Nutsedge, Yellow [13, 19]
